The record followed here is ChEMBL document CHEMBL1201862, “PubChem BioAssay data set” (2004).

For assay [1], the target named is T1, High affinity choline transporter 1 (Homo sapiens, UniProt Q9GZV3).
T1 sequence (Q9GZV3 whole entry): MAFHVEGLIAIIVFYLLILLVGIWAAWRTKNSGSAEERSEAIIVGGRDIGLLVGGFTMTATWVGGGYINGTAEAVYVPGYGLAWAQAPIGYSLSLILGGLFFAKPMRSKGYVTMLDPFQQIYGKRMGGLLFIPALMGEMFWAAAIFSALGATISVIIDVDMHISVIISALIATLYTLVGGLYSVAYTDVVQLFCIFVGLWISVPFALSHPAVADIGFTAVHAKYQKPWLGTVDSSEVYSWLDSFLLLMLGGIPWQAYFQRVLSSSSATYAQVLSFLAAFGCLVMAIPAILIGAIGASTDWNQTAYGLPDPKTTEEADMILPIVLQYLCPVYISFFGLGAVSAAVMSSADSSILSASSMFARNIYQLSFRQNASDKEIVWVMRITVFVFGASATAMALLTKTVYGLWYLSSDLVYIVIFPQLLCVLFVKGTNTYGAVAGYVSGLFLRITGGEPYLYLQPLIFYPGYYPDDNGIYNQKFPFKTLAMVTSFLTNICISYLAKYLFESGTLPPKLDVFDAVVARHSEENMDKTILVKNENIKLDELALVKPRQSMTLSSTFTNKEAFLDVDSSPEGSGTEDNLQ
Briefly: CHT inhibitors, dose response, cell-based, 5-point CRC, membrane potential dye (AID 504840). The class given is functional.

Assay [2] deals with T1, High affinity choline transporter 1. Briefly: CHT inhibitors, dose response, cell-based, 10-point CRC, membrane potential dye (AID 588401).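 Note: membrane potential dye fluorescence of choline-evoked depolarization via CHT.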 In kind it is functional.
Assay [3] deals with H9c2. The assay is described as follows: cells. In kind it is functional, cell-based. The note with it: Rattus norvegicus, H9c2, Myocardium.
Assay [4] concerns the target Melanocortin receptor 4 (Homo sapiens, UniProt P32245). The class given is functional, cell-based.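 Note: Cell-based assay with luminescence read-out, confirmatory dose-response testing for agonist activity of biased ligands at MC4R; human U2OS cells with tagged receptor and beta-arrestin; potency of agonists that increase receptor coupling to beta-arrestin.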
Assay [5] deals with DNA (cytosine-5)-methyltransferase 1 (Homo sapiens, UniProt P26358). The assay is described as follows: DNMT1 methyltransferase inhibitors, confirmation, biochemical, fluorescent molecular beacon (AID 602386). In kind it is functional.
Assay [6] has as its target T2, Small ubiquitin-related modifier 1 (Homo sapiens, UniProt P63165). The assay is described as follows: inhibitors of SUMO1 peptide binding, dose response, biochemical, fluorescence polarization, uHTS hits (AID 624382). The note with it: read-out: IC50_Mean. In kind it is functional. (Fluorescence polarisation rises when a labelled molecule tumbles more slowly, as on binding a larger partner.)

Assay [7] concerns the target Albumin (Bos taurus, UniProt P02769). The assay is described as follows: Counterscreen for inhibitors of T-cell receptor (TCR)-CD3 interaction: Fluorescence-based biochemical high throughput dose response assay to identify inhibitors of T-cell receptor (TCR)-CD3 interaction using a TAMRA-labeled BSA probe. In kind it is functional. A general note: Counterscreens check selectivity or assay interference.

Assay [8] deals with T2, Small ubiquitin-related modifier 1. Briefly: inhibitors of SUMO1 partner interactions, dose response, biochemical, FRET (AID 624383). The class given is functional. The note with it: read-out: IC50_Mean.
The target of assay [9] is Melanin-concentrating hormone receptor 1 (Homo sapiens, UniProt Q99705). Briefly: Late-stage fluorescence-based counterscreen for antagonists of the G-protein coupled receptor 7 (GPR7): cell-based dose response assay to identify antagonists of the melanin-concentrating hormone receptor 1 (MCHR1) Set 5. In kind it is functional.
For assay [10], the target named is T3, Apoptotic protease-activating factor 1 (Homo sapiens, UniProt O14727).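 Note: caspase-3 cleavage of fluorogenic Rh110 DEVD substrate downstream of apoptosome activation.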
T3 sequence (O14727 whole entry): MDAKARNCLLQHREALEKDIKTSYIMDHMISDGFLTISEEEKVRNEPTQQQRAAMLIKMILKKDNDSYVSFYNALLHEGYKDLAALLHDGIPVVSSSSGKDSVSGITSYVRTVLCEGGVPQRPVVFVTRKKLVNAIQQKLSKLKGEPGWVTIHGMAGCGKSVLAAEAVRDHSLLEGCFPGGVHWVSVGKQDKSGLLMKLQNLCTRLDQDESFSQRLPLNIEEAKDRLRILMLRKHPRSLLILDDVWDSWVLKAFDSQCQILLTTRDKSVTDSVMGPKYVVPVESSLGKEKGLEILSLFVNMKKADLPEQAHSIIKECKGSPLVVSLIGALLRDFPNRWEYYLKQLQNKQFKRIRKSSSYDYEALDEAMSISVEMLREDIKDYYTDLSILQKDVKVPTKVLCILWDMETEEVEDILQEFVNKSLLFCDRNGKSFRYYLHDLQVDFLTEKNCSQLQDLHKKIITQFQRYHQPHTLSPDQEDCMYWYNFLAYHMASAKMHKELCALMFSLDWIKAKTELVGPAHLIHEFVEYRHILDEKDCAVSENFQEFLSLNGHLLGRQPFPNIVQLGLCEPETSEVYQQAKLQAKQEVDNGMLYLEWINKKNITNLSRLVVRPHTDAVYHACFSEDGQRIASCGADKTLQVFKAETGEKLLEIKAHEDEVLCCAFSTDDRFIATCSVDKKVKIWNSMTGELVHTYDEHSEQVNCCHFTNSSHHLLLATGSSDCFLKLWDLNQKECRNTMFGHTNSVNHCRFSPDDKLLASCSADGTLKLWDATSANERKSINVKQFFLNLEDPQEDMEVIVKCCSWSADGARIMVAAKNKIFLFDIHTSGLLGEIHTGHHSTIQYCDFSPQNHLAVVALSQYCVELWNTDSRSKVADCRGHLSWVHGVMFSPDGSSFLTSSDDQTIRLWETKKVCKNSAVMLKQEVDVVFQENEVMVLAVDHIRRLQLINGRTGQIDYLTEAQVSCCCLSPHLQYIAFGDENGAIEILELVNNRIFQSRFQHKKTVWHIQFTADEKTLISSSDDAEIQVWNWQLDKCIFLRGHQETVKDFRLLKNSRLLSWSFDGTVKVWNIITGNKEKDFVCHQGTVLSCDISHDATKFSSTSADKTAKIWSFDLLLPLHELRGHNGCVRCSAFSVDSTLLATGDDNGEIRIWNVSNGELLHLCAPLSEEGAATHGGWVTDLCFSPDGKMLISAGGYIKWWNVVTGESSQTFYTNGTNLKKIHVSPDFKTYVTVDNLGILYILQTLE
The assay is described as follows: SAR analysis of small molecule Activators of Apaf-1 in a Fluorescent assay. In kind it is functional. The note with it: read-out: EC50_Mean.

The target in assay [11] is T4, Insulin-degrading enzyme (Homo sapiens, UniProt P14735).
T4 sequence (P14735 whole entry): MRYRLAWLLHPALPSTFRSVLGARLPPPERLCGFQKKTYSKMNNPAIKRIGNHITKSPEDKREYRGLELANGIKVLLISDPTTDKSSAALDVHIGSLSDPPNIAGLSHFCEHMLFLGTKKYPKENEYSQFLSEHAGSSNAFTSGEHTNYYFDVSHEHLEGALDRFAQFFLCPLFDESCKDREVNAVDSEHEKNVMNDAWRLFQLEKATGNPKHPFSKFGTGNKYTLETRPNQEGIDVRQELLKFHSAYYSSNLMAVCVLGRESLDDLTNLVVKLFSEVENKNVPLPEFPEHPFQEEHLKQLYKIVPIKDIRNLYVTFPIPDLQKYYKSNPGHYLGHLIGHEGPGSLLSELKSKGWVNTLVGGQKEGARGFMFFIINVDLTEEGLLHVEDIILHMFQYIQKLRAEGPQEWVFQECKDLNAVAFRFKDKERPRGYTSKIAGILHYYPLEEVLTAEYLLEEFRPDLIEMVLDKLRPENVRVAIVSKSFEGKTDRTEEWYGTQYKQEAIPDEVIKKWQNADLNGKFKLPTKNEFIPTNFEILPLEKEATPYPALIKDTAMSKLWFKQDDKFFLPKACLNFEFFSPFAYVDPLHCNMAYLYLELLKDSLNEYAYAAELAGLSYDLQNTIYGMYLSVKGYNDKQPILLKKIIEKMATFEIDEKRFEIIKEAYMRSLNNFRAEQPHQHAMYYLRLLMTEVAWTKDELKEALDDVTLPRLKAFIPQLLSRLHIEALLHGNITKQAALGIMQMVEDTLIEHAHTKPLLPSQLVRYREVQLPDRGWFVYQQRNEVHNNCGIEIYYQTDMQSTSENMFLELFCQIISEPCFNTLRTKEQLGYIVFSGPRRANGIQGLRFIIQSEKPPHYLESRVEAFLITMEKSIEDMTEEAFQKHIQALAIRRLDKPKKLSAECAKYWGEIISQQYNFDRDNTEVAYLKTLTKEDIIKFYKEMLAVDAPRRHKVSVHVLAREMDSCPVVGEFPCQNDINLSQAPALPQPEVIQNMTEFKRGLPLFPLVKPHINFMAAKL
The assay is described as follows: activators of recombinant IDE enzyme, dose response, counter-screen for IDE activator project, biochemical, fluorescence polarization (AID 588681).

In assay [12] the test system is HEK293. The assay is described as follows: optical interference in Abeta FP readout, dose response, artefact control for IDE activator project, biochemical, fluorescence polarization (AID 588442). The class given is functional, cell-based. The note with it: Homo sapiens.
Assay [13] relates to HEK293. The assay is described as follows: HEK cell cytotoxicity by LDH release, dose response, cytotoxicity control for IDE activator project, fluorescence, HEK cells (AID 588440).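 Note: cytotoxicity by LDH release measuring loss of membrane integrity.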 In kind it is functional, cell-based. The note with it: Homo sapiens. Background: Release of lactate dehydrogenase indicates damage to the cell membrane.
The target of assay [14] is T4, Insulin-degrading enzyme. The assay is described as follows: activators of endogenous IDE in HEK cells, dose response, cell-based, fluorescence polarization (AID 588439). In kind it is functional.

The source made the active and inactive calls. Bounds are passed on as bounds.

T2 sequence (P63165 whole entry): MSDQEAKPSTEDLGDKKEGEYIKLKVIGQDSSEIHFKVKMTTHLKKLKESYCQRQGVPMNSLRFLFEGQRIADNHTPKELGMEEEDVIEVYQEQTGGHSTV
Sequence of DNA (cytosine-5)-methyltransferase 1 (P26358 whole entry): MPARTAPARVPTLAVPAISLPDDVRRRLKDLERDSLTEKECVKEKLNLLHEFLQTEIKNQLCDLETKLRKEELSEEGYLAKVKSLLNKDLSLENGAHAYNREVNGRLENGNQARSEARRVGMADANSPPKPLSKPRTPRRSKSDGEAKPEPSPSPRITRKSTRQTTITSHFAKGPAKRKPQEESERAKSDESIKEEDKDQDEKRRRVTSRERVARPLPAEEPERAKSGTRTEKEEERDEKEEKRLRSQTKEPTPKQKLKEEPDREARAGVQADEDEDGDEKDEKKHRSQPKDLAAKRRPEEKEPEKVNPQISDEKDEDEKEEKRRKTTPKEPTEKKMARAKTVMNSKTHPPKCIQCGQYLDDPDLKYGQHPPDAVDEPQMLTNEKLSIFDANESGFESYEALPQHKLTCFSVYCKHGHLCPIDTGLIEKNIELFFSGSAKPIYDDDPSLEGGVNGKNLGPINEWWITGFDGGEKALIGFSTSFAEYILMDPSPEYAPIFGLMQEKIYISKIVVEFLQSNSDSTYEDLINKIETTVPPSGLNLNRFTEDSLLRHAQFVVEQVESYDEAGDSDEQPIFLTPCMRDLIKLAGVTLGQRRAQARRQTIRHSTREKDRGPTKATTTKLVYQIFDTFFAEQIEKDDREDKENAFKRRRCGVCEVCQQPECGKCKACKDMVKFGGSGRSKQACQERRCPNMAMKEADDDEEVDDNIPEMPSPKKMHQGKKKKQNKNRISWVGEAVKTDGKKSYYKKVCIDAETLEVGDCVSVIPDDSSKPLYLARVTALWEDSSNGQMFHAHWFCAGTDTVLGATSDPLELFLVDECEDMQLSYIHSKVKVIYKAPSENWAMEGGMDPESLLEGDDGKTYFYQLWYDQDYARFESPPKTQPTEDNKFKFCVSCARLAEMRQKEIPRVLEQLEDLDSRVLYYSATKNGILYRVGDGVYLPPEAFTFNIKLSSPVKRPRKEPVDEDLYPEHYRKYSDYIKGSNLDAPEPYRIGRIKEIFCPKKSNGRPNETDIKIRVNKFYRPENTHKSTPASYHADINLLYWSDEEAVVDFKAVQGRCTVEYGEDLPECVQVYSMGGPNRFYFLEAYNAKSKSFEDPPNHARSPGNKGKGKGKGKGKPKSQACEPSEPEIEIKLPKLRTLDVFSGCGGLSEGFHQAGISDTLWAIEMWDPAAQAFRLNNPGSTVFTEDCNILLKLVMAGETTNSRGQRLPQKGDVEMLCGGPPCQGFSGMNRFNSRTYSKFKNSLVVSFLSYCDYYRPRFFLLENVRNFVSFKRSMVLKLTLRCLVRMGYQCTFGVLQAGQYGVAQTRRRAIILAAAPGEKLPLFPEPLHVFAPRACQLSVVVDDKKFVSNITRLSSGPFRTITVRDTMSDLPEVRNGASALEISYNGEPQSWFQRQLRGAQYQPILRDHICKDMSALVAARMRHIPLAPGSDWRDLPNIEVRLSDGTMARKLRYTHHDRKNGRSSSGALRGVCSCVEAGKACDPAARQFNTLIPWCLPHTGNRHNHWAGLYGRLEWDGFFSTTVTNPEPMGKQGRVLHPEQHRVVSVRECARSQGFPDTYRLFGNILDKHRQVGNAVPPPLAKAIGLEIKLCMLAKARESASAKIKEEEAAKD
Sequence of Melanocortin receptor 4 (P32245 whole entry): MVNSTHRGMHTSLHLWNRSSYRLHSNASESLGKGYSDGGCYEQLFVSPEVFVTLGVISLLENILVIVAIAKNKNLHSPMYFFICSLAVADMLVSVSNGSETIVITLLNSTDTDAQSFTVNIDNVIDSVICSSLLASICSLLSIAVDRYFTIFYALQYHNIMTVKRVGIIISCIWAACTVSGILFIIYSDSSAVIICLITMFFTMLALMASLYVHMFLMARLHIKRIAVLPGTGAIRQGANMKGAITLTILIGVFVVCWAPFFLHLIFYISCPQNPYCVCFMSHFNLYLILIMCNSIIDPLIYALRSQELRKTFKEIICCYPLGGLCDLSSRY
Sequence of Albumin (P02769 whole entry): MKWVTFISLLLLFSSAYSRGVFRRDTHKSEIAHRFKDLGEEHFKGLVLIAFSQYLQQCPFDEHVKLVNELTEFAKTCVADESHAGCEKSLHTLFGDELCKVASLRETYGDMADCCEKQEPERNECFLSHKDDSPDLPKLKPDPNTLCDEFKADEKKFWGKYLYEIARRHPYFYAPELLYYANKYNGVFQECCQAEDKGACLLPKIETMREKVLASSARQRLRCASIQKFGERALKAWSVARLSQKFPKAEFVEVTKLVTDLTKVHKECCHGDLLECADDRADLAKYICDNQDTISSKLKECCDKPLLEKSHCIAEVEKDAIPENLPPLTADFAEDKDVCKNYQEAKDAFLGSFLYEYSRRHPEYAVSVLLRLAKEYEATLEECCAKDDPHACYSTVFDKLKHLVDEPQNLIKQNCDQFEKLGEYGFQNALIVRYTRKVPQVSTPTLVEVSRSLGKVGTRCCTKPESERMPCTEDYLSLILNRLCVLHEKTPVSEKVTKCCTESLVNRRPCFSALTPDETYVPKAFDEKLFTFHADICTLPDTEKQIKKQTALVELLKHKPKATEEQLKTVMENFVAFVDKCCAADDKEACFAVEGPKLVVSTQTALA
Sequence of Melanin-concentrating hormone receptor 1 (Q99705 whole entry): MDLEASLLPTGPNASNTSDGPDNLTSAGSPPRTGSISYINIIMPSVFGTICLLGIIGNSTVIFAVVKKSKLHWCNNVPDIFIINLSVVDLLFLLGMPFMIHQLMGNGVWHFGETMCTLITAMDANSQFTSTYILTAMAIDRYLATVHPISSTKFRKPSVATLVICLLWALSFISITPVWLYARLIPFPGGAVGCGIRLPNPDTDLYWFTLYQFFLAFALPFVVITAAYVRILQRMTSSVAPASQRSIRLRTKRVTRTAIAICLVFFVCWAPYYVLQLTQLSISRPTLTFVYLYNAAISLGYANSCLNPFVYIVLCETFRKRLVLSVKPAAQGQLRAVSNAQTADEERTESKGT

With `O=C(Cc1ccc(-n2c(=O)c3ccccc3n(Cc3ccccc3F)c2=O)cc1)NCC1CCCO1` (stereo unspecified), the IC50 in assay [1] is 7.14 µM (active); in assay [2], 3.98 µM (active).

Consider `COc1cc(-c2cc(NC=O)c3ncc(-c4ccc(C(C)=O)cc4)n3c2)cc(OC)c1OC`, for which, in [3], the IC50 was > 79 µM (inactive). The EC50 in assay [4] is > 89.2 µM (inactive).

Take `c1coc(-c2ccc3nncn3c2)c1`: the IC50 in [5] is 4.58 µM (active); in assay [6] it was > 66.6 µM (inactive); in [7], > 94.2 µM (inactive); in assay [8] it was 7.19 µM (active).

With `COc1ccc(-c2nc(C=O)cs2)cc1`, the IC50 in [1] was 2.88 µM (active); in assay [2], 3.57 µM (active).

Regarding `COc1ccc(Oc2c(Cl)cnn(Cc3ccccc3C(C)C)c2=O)cc1`, the IC50 in assay [9] is 1.95 µM (active).

Turning to `CCOc1ccccc1NC(=O)CCS(=O)(=O)c1ccc2c(c1)OCCO2`, the EC50 in assay [10] is > 100 µM (inactive).

Turning to `O=C1c2ccccc2C(Nc2ccc3[nH]c(-c4cccnc4)nc3c2)N1Cc1ccco1` (stereo unspecified), the EC50 was > 54.6 µM (inactive) in [11], > 55.9 µM (inactive) in assay [12] and > 54.6 µM (inactive) in assay [14]. In assay [13], the IC50 is > 89.1 µM (inactive).
